What was measured:
PD rCMECs = experiment: Cell viability by MTT, PD rCMECs; type: cell-based, rat; conditions: 24 h; FLZ 1 to 50 µM, zosuquidar 5 µM, FTC 10 µM
Experimental: (§1) To investigate the effects of FLZ on the growth of normal and PD rCMECs monolayers, a cell proliferation assay was performed. […] Therefore, in all following experiments, we used FLZ (1, 5 and 10 µM), zosuquidar (5 µM) and FTC (10 µM) as standard treatment.
(§2) Supplementary file pone.0102442.s001.tif: Figure S1 The cytotoxicity of FLZ (A) and inhibitors (B) in rat cerebral microvessel endothelial cells. rCMECs were exposed to the indicated concentration of FLZ (A) and transport inhibitors zosuquidar and FTC for 24 h. Each point represents the mean ± SD of three determinations. Each experiment was performed in three times. (TIF) Click here for additional data file.

normal rCMECs = experiment: Cell viability by MTT, normal rCMECs; type: cell-based, rat; conditions: 24 h; FLZ 1 to 50 µM, zosuquidar 5 µM, FTC 10 µM
Experimental: as §1, §2

[1] = test system: PD pathological in vitro BBB model; experiment: Sodium fluorescein permeability, PD pathological co-culture BBB model; type: in vitro ADME, rat; conditions: co-culture model under Parkinson's conditions
Experimental: (§3) The flux of sodium fluorescein (NaF) across the BBB models was determined as previously described. Prior to transport studies, culture media from the top and bottom compartments were replaced with HBSS. 100 µg/ml Na-F (MW: 376 Da) was added to the upper inserts of the Transwell system. At 30, 60, 90 and 120 min, 50 µl samples were taken from the acceptor compartment and immediately replaced with fresh buffer. The concentrations of the fluorescein in samples from the upper to lower compartments were determined by fluorescence multiwell plate reader (excitation wavelength: 485 nm; emission wavelength: 535 nm). Based on the rate of influx of sodium fluorescein into the bottom compartment, permeability coefficients were calculated.

[2] = test system: physiological in vitro BBB model; experiment: Sodium fluorescein permeability, physiological co-culture BBB model; type: in vitro ADME, rat; conditions: co-culture model under normal conditions
Experimental: as §3

Structure (SMILES)	viability of PD rCMECs (MTT) (PD rCMECs)	viability of normal rCMECs (MTT) (normal rCMECs)	paracellular Papp of NaF [1]	paracellular Papp of NaF [2]
COc1ccc2c3c([nH]c2c1)[C@H](C=C(C)C)N1C(=O)[C@@H]2CCCN2C(=O)[C@@H]1C3 [FTC, Fumitremorgin C]	did not effect	did not effect		
O=C([O-])c1ccccc1-c1c2ccc(=O)cc-2oc2cc([O-])ccc12.[Na+].[Na+] [NaF, sodium fluorescein]			2.18±0.26 10^−6 cm/s	1.92±0.19 10^−6 cm/s
O[C@@H](COc1cccc2ncccc12)CN1CCN([C@@H]2c3ccccc3[C@@H]3[C@H](c4ccccc42)C3(F)F)CC1 [zosuquidar]	did not effect	did not effect		
